These results are taken from patent US20080227796A1, “7-Amino-6-Hetaryl-1,2,4-Triazolo[1,5-A]Pyrimidine Compounds and the Use Thereof for Controlling Pathogenic Fungi” (BASF Aktiengesellschaft, priority 2004, published 2008).

The structures appear in SMILES notation.

The subject of the assay is Puccinia recondita. The experiment in a line: Protective activity against Puccinia recondita on wheat (brown rust of wheat). The class given is in vivo. Conditions: 250 ppm, protective: wheat seedlings sprayed the day before inoculation, visual rating after a further 7 days; untreated plants 90% infected. The protocol:
The respective active compound was prepared as a stock solution with 25 mg of active compound which was made up to 10 ml with a mixture of acetone and/or dimethyl sulfoxide (DMSO) and the emulsifier Uniperol® EL (wetting agent having emulsifying and dispersing action based on ethoxylated alkylphenols) in a volume ratio solvent/emulsifier of 99 to 1. The solution was then made up to 100 ml with water. This stock solution was diluted to the active compound concentration stated below using the solvent/emulsifier/water mixture described.
Leaves of potted wheat seedlings of the cultivar “Kanzler” were sprayed to runoff point with an aqueous suspension having the active compound concentration stated below. The next day, the treated plants were inoculated with a spore suspension of brown rust of wheat (Puccinia recondita). The plants were then placed in a chamber with high atmospheric humidity (90 to 95%) at 20 to 22° C. for 24 hours. During this time, the spores germinated and the germ tubes penetrated into the leaf tissue. The next day, the test plants were returned to the greenhouse and cultivated at temperatures between 20 and 22° C. and 65 to 70% relative atmospheric humidity for a further 7 days. The extent of the rust fungal development on the leaves was then determined visually.

As to `Cc1cc(-c2c(Cl)nc3ncnn3c2N[C@H](C)C(C)C)ccn1` [Example 59], the infection result was “no infection”.
